# According to US11866518B2, “Bicyclic peptide ligands specific for TSLP” (BicycleTx Limited, priority 2020, dated 2024):
# *1 amine or outer side, *2 acyl side, *3 side chain or, on linkers, in order; H or OH if unused. Where a SMILES comes first, the peptide text is derived from it. Bridges are numbered along the chain shown (N, C = ends). TATA = O=C(CC[*:1])N1CN(C(=O)CC[*:2])CN(C(=O)CC[*:3])C1
# What was measured:
# [1] = target: T1, TSLP (Homo sapiens, UniProt Q969D9); assay: Human peripheral blood mononuclear cell assay (TSLP-induced CCL17/TARC); type: cell-based; set-up: host or cells: added to human PBMCs from healthy donors; conditions: read-out: CCL17 % Inhibition @ 10 μM, […] TSLP
# T1 sequence (Q969D9 29-159): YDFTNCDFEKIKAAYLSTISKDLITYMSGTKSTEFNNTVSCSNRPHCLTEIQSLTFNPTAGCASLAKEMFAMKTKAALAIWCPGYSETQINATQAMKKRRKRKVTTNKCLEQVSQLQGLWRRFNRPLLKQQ
# Procedure: Human peripheral blood mononuclear cells (PMBCs) were obtained from heparinized whole blood (healthy donors) by density gradient centrifugation using Lymphoprep (StemCell Technologies, Vancouver, BC) according to the manufacturers instructions. The PBMCs were washed twice with PBS containing 2 mM EDTA and 2% fetal calf serum (FCS) and reconstituted in RPMI containing 10% FCS and 2% PenStrep at a final concentration of 3 million cells/mL. This cell suspension (100 μL) was aliquoted into the wells of a 96-well flat bottom tissue culture plate. 5 μL of bicycle peptide or vehicle (0.1% DMSO in complete medium) was then added and mixed with 5 μL of TSLPvehicle (complete medium). […] The plate was incubated for 30 minutes are rt. 10 μL of this mixture was added to cells and the plate was incubated for 24 hours in a 10% CO2, humidified incubator at 37° C. The plate was centrifuged at 300×g for 5 min and the collected supernatants frozen at −20° C. for subsequent CCL17/TARC analysis.
# CCL17/TARC was determined by MSD (MesoScale Discovery, Maryland, USA) according to the manufacturer's instructions.
# [2] = target: T1, TSLP; assay: Human TSLP Surface Plasmon Resonance (SPR) binding assay; set-up: The resulting construct spCD33-6×HN-TEV-hTSLP(29-159)-Avi; 6xHN tag with TEV site (N, cleaved yes); made in house; host or cells: Expi293F cells; conditions: biotinylated human TSLP immobilized on streptavidin chip; 20° C.; steady-state or kinetic 1:1 fit; read-out: hTSLP SPR Kd
# [3] = the molecule shown is the open-chain precursor, triazole bond, 27-membered ring, CuSO4/Na ascorbate, H2O/tBuOH
Compound,inhibition at 10 µM [1],Kd [2],"ring closure, yield after HPLC [3]"
"CC(C)C[C@@H]1NC(=O)[C@H](Cc2c[nH]c3ccccc23)NC(=O)[C@H](C(C)C)NC(=O)[C@@H](NC(=O)[C@@H]2CCCN2C(=O)[C@@H]2CCCN2C(=O)[C@@H](N)CO)CSCCC(=O)N2CN3CN(C2)C(=O)CCSC[C@H](NC(=O)[C@H](CC(=O)O)NC(=O)[C@H](CC(=O)O)NC1=O)C(=O)N[C@@H](Cc1c[nH]c2ccccc12)C(=O)N[C@@H](CCCNC(=N)N)C(=O)NCC(=O)N[C@@H](Cc1ccccc1)C(=O)N[C@H](C(=O)N[C@@H](C)C(N)=O)CSCCC3=O [Example 73, SPP-(SEQ ID NO: 54)-A] (H-SPPCVWLDDCWRGFCA-NH2; linker 4-10-15 via TATA; N-terminus and C-terminus assumed)",-11%,85 nM,
"CC(=O)N[C@H]1CSCCC(=O)N2CN3CN(C2)C(=O)CCSC[C@H](NC(=O)[C@H](CC(=O)O)NC(=O)[C@H](CCC(=O)O)NC(=O)[C@H](CC(C)C)NC(=O)[C@H](Cc2c[nH]c4ccccc24)NC(=O)[C@H](CCC(N)=O)NC1=O)C(=O)N[C@@H](Cc1c[nH]c2ccccc12)C(=O)N[C@@H](CCCNC(=N)N)C(=O)NCC(=O)N[C@@H](Cc1cccc(C)c1)C(=O)N[C@H](C(N)=O)CSCCC3=O [Example 74, Ac-(SEQ ID NO: 55)]",43%,91 nM,
"CC(C)C[C@H](NC(=O)[C@H](Cc1c[nH]cn1)NC(=O)[C@@H]1CSCCC(=O)N2CN3CN(C2)C(=O)CCSC[C@H](NC(=O)[C@H](CC(=O)O)NC(=O)[C@H](CCC(=O)O)NC(=O)[C@H](CC(C)C)NC(=O)[C@H](Cc2c[nH]c4ccccc24)NC(=O)[C@H](Cc2c[nH]cn2)NC(=O)[C@@H](NC(=O)[C@H](C)N)CSCCC3=O)C(=O)N[C@@H](Cc2c[nH]c3ccccc23)C(=O)N[C@@H](CCCNC(=N)N)C(=O)NCC(=O)N[C@@H](Cc2ccccc2)C(=O)N1)C(=O)N[C@@H](CCC(=O)O)C(N)=O [Example 75, A-(SEQ ID NO: 56)-HLE] (H-ACHWLEDCWRGFCHLE-NH2; linker 2-8-13 via TATA)",-2%,92 nM,
"CC(C)C[C@@H]1NC(=O)[C@H](Cc2c[nH]c3ccccc23)NC(=O)[C@H](Cc2c[nH]c3ccccc23)NC(=O)[C@H](CO)NC(=O)[C@H](CO)NC(=O)[C@@H]2CSCCC(=O)N3CN(CN(C3)C(=O)CCSC[C@@H](C(=O)N[C@@H](C)C(N)=O)NC1=O)C(=O)CCSC[C@H](NC(=O)[C@H](C)N)C(=O)N[C@@H](CCCNC(=N)N)C(=O)N[C@@H](CC(=O)O)C(=O)N[C@@H](CC(C)C)C(=O)N[C@@H](CC(=O)O)C(=O)N1CCC[C@H]1C(=O)N[C@@H](Cc1c[nH]c3ccccc13)C(=O)N[C@@H]([C@@H](C)O)C(=O)N2 [Example 164, A-(SEQ ID NO: 122)-A]",0%,98 nM,
"CC(C)C[C@@H]1NC(=O)[C@H](Cc2c[nH]c3ccccc23)NC(=O)[C@H](Cc2c[nH]c3ccccc23)NC(=O)[C@H](CC(N)=O)NC(=O)[C@@H]2CCCN2C(=O)[C@@H]2CSCCC(=O)N3CN(CN(C3)C(=O)CCSC[C@H](NC(=O)[C@@H]3CCCN3C(=O)[C@H](Cc3c[nH]cn3)NC(=O)[C@H](C)N)C(=O)N[C@@H](C)C(=O)N[C@@H](CC(=O)O)C(=O)N[C@@H](CC(C)C)C(=O)N[C@@H](CC(=O)O)C(=O)N3CCC[C@H]3C(=O)N[C@@H](Cc3c[nH]c4ccccc34)C(=O)N[C@@H]([C@@H](C)O)C(=O)N2)C(=O)CCSC[C@@H](C(=O)N[C@@H](C)C(N)=O)NC1=O [Example 165, AHP-(SEQ ID NO: 123)-A] (H-AHPCADLDPWTCPNWWLCA-NH2; linker 4-12-18 via TATA; N-terminus and C-terminus assumed)",33%,30 nM,
"CC(C)C[C@@H]1NC(=O)[C@H](Cc2c[nH]c3ccccc23)NC(=O)[C@H](Cc2c[nH]c3ccccc23)NC(=O)[C@H](CO)NC(=O)[C@H](CO)NC(=O)[C@@H]2CSCCC(=O)N3CN(CN(C3)C(=O)CCSC[C@H](NC(=O)[C@@H](NC(=O)[C@H](CCC(N)=O)NC(=O)[C@@H](NC(=O)[C@@H](NC(=O)[C@H](C)NC(=O)[C@@H](N)Cc3ccc(O)cc3)[C@@H](C)O)[C@@H](C)O)C(C)C)C(=O)N[C@@H](CCCNC(=N)N)C(=O)N[C@@H](CC(=O)O)C(=O)N[C@@H](CC(C)C)C(=O)N[C@@H](CC(=O)O)C(=O)N3CCC[C@H]3C(=O)N[C@@H](Cc3c[nH]c4ccccc34)C(=O)N[C@@H]([C@@H](C)O)C(=O)N2)C(=O)CCSC[C@@H](C(=O)N[C@@H](C)C(N)=O)NC1=O [Example 171, YATTQV-(SEQ ID NO: 122)-A]",36%,48 nM,
"CC(C)C[C@@H]1NC(=O)[C@H](Cc2c[nH]c3ccccc23)NC(=O)[C@H](Cc2c[nH]c3ccccc23)NC(=O)[C@H](CC(=O)O)NC(=O)[C@H](CO)NC(=O)[C@@H]2CSCCC(=O)N3CN(CN(C3)C(=O)CCSC[C@H](NC(=O)[C@@H]3CCCN3C(=O)[C@H](C)NC(=O)[C@@H](N)CCCNC(=N)N)C(=O)N3CCC[C@H]3C(=O)N[C@@H](CC(=O)O)C(=O)N[C@@H](CC(C)C)C(=O)N[C@@H](CC(=O)O)C(=O)N3CCC[C@H]3C(=O)N[C@@H](Cc3c[nH]c4ccccc34)C(=O)N[C@@H]([C@@H](C)O)C(=O)N2)C(=O)CCSC[C@@H](C(=O)N[C@@H](C)C(N)=O)NC1=O [Example 187, RAP-(SEQ ID NO: 136)-A] (H-RAPCPDLDPWTCSDWWLCA-NH2; linker 4-12-18 via TATA; N-terminus and C-terminus assumed)",11%,86 nM,
"CC(C)C[C@@H]1NC(=O)[C@H](Cc2c[nH]c3ccccc23)NC(=O)[C@H](Cc2c[nH]c3ccccc23)NC(=O)[C@H](CO)NC(=O)[C@H](CC(=O)O)NC(=O)[C@@H]2CSCCC(=O)N3CN(CN(C3)C(=O)CCSC[C@H](NC(=O)[C@@H](NC(=O)[C@H](Cc3c[nH]cn3)NC(=O)[C@@H](N)CO)C(C)C)C(=O)N[C@@H](CCCNC(=N)N)C(=O)N[C@@H](CC(=O)O)C(=O)N[C@@H](CC(C)C)C(=O)N[C@@H](CC(=O)O)C(=O)N3CCC[C@H]3C(=O)N[C@@H](Cc3c[nH]c4ccccc34)C(=O)N[C@@H]([C@@H](C)O)C(=O)N2)C(=O)CCSC[C@@H](C(=O)N[C@@H](C)C(N)=O)NC1=O [Example 188, SHV-(SEQ ID NO: 137)-A] (H-SHVCRDLDPWTCDSWWLCA-NH2; linker 4-12-18 via TATA; N-terminus and C-terminus assumed)",-4%,72 nM,
"CC(C)C[C@H](NC(=O)CNC(=O)[C@H](CC(=O)O)NC(=O)[C@H](C)NC(=O)[C@@H]1CSCCC(=O)N2CN3CN(C2)C(=O)CCSC[C@H](NC(=O)[C@H]([C@@H](C)O)NC(=O)[C@H](Cc2c[nH]c4ccccc24)NC(=O)[C@@H]2CCCN2C(=O)[C@H](CC(=O)O)NC(=O)[C@H](CC(C)C)NC(=O)[C@H](CC(=O)O)NC(=O)[C@H](CCCNC(=N)N)NC(=O)[C@@H](NC(=O)[C@H](C)N)CSCCC3=O)C(=O)N[C@@H](CO)C(=O)N[C@@H](CO)C(=O)N[C@@H](Cc2c[nH]c3ccccc23)C(=O)N[C@@H](Cc2c[nH]c3ccccc23)C(=O)N[C@@H](CC(C)C)C(=O)N1)C(=O)N[C@@H](Cc1ccc(O)cc1)C(=O)N[C@@H](CC(=O)O)C(=O)N[C@@H](C)C(N)=O [Example 193, A-(SEQ ID NO: 122)-ADGLYDA]",47%,50 nM,
"CC(C)C[C@@H]1NC(=O)[C@H](Cc2c[nH]c3ccccc23)NC(=O)[C@@H]2CSCCC(=O)N3CN(CN(C3)C(=O)CCSC[C@@H](C(=O)N[C@@H](C)C(N)=O)NC(=O)[C@H](CO)NC1=O)C(=O)CCSC[C@H](NC(=O)[C@H](C)N)C(=O)N[C@@H](CC(=O)O)C(=O)N[C@@H](Cc1c[nH]c3ccccc13)C(=O)N[C@@H](Cc1c[nH]cn1)C(=O)N[C@@H](Cc1c[nH]c3ccccc13)C(=O)N[C@@H](CCC(=O)O)C(=O)N[C@@H](Cc1ccc(O)cc1)C(=O)N[C@@H](CC(=O)O)C(=O)N2 [Example 199, A-(SEQ ID NO: 144)-A]",-3%,81 nM,
"CC(C)C[C@@H]1NC(=O)[C@H](Cc2c[nH]c3ccccc23)NC(=O)[C@@H]2CSCCC(=O)N3CN(CN(C3)C(=O)CCSC[C@H](NC(=O)[C@H](CC(=O)O)NC(=O)[C@H](Cc3c[nH]cn3)NC(=O)[C@@H](N)CC(=O)O)C(=O)N[C@@H]([C@@H](C)O)C(=O)N[C@@H](Cc3c[nH]c4ccccc34)C(=O)N[C@@H](CC(N)=O)C(=O)N[C@@H](Cc3c[nH]c4ccccc34)C(=O)N[C@@H](CCC(=O)O)C(=O)N[C@@H](Cc3ccc(O)cc3)C(=O)N[C@@H](CC(=O)O)C(=O)N2)C(=O)CCSC[C@@H](C(=O)N[C@@H](C)C(N)=O)NC(=O)[C@H](CC(=O)O)NC1=O [Example 200, DHD-(SEQ ID NO: 145)-A] (H-DHDCTWNWEYDCWLDCA-NH2; linker 4-12-16 via TATA; N-terminus and C-terminus assumed)",-42%,68 nM,
"Ac-Cys-Gln-X2-Leu-Glu-Asp-Cys-Trp-X1-Gly-Phe(4-F)-Cys-NH2 (X1=L-2-amino-azidobutanoic acid, X2=L-2-aminohept-6-ynoic acid; three Cys bridged by TATA)",,,1%
